Experimental data published in ChEMBL document CHEMBL1770141, “Quinolino-benzo-[5, 6]-dihydroisoquindolium compounds derived from berberine: a new class of highly selective ligands for G-quadruplex DNA in c-myc oncogene” (Eur J Med Chem, 2011).
The source made the active and inactive calls. No cut-off for these calls is given here.

What was measured:
Nucleic Acid [1] = assay: Thermal stability of c-MYC FPu18T G-quadruplex DNA assessed as stabilization temperature at 2 uM by FRET assay; assay type: nucleic-acid assay
Nucleic Acid [2] = assay: Thermal stability of F10T duplex DNA assessed as stabilization temperature at 2 uM by FRET assay; assay type: nucleic-acid assay
Nucleic Acid [3] = assay: Inhibition of c-myc G-quadruplex formation in oligonucleotide Pu27 after 3 mins by PCR stop assay; assay type: nucleic-acid assay
HL-60 [4] = assay: Cytotoxicity against human HL60 cells after 48 hrs by MTT assay; assay type: functional, cell-based; conditions: HL-60, 48 h
ECV-304 [5] = assay: Cytotoxicity against human ECV304 cells after 48 hrs by MTT assay; assay type: functional, cell-based; conditions: ECV-304, 48 h
[6] = Cytotoxicity against human GLC82 cells after 48 hrs by MTT assay; assay type: functional, cell-based; conditions: GLC82, 48 h
NCI-H460 = assay: Cytotoxicity against human NCI-H460 cells after 48 hrs by MTT assay; assay type: functional, cell-based; conditions: NCI-H460, 48 h
Nucleic Acid [7] = assay: Thermal stability of c-MYC FPu18T G-quadruplex DNA assessed as stabilization temperature at 2 uM by FRET assay in presence of 10 uM duplex DNA competitor; assay type: nucleic-acid assay
HL-60 [8] = assay: Induction of growth phase arrest in human HL60 cells expressing c-myc gene at 0.5 uM after 16 days; assay type: functional, cell-based
ECV-304 [9] = assay: Induction of growth phase arrest in human ECV304 cells at 0.5 uM after 16 days; assay type: functional, cell-based
HL-60 [10] = assay: Inhibition of c-myc gene transcription in human HL60 cells assessed as c-myc mRNA level normalized to GAPDH mRNA level by RT-PCR; assay type: functional, cell-based
ECV-304 [11] = assay: Inhibition of c-myc gene transcription in human ECV304 cells assessed as c-myc mRNA level normalized to GAPDH mRNA level by RT-PCR; assay type: functional, cell-based
Nucleic Acid [12] = assay: Binding affinity to oligonucleotide Pu18 DNA assessed as induction of Pu18G-quadruplex DNA at 262 nm bandwidth by circula dichroism spectroscopy; assay type: nucleic-acid assay
Nucleic Acid [13] = assay: Binding affinity to oligonucleotide Pu18 DNA assessed as induction of Pu18G-quadruplex DNA positive shift to at 262 nm bandwidth by circula dichroism spectroscopy; assay type: nucleic-acid assay
Nucleic Acid [14] = assay: Binding affinity to oligonucleotide Pu18 DNA assessed as induction of Pu18G-quadruplex DNA negative peak at 240 nm bandwidth by circula dichroism spectroscopy; assay type: nucleic-acid assay

ΔTm (Nucleic Acid [1]) | ΔTm (Nucleic Acid [2]) | IC50 (Nucleic Acid [3]) | ΔTm (Nucleic Acid [7]) | Activity (Nucleic Acid [12]) | Activity (Nucleic Acid [13]) | Activity (Nucleic Acid [14]) | Compound | IC50 (HL-60 [4]) | IC50 (ECV-304 [5]) | IC50 [6] | IC50 (NCI-H460) | Activity (HL-60 [8]) | Activity (ECV-304 [9]) | inhibition (HL-60 [10]) | inhibition (ECV-304 [11])
20 °C | 0 °C | 3.4 µM | 19.5 °C |  |  |  | COc1ccc2cc3[n+](c4c2c1N(CCN(C)C)C=C4)CCc1cc2c(cc1-3)OCO2 | 12 µM | > 100 µM | 31 µM | 60 µM |  |  |  | 
1 °C | 2 °C |  |  |  |  |  | COc1ccc2cc3[n+](cc2c1OC)CCc1cc2c(cc1-3)OCO2 |  |  |  |  |  |  |  | 
29 °C | 2 °C | 2 µM |  |  |  |  | COc1ccc2cc3[n+](cc2c1NCCCCCCN)CCc1cc2c(cc1-3)OCO2 | 5.5 µM | > 100 µM | 4 µM | 9 µM | Active | Active | Active | Active
25 °C | 0 °C | 3 µM | 24 °C |  |  |  | COc1ccc2cc3[n+](c4c2c1N(CCCN(C)C)C=C4)CCc1cc2c(cc1-3)OCO2 | 8 µM | > 100 µM | 5 µM | 9 µM |  |  |  | 
23 °C | 0 °C | 4.3 µM | 23 °C |  |  |  | COc1ccc2cc3[n+](c4c2c1N(CCCN1CCOCC1)C=C4)CCc1cc2c(cc1-3)OCO2 | 12.6 µM | > 100 µM | 30 µM | 36 µM |  |  |  | 
20 °C | 1 °C | 3.3 µM |  |  |  |  | COc1ccc2cc3[n+](cc2c1NCCCN(C)C)CCc1cc2c(cc1-3)OCO2 | 27.5 µM | > 100 µM | 29 µM | 64 µM |  |  |  | 
19 °C | 0 °C | 3.9 µM |  |  |  |  | COc1ccc2cc3[n+](cc2c1NCCN(C)C)CCc1cc2c(cc1-3)OCO2 | 38 µM | > 100 µM | 36 µM | 56 µM |  |  |  | 
17 °C | 0 °C | 4.8 µM |  |  |  |  | COc1ccc2cc3[n+](cc2c1NCCCN1CCOCC1)CCc1cc2c(cc1-3)OCO2 | 20.6 µM | > 100 µM | 85 µM | > 100 µM |  |  |  | 
29 °C | 0.5 °C | 1.9 µM | 27.5 °C | Active | Active | Active | COc1ccc2cc3[n+](c4c2c1N(CCCCCCN)C=C4)CCc1cc2c(cc1-3)OCO2 | 2 µM | > 100 µM | 10 µM | 13 µM | Active | inactive | Active | inactive
